What was measured:
Swiss-Webster male mice = assay: Mouse Activity and Screen Test Procedure (MAST): locomotor activity in actophotometer; type: in vivo; conditions: one hour prior to testing
Procedure: Nine unfasted Swiss-Webster male mice weighing 20-30 g equally divided into three groups for each drug dose to be tested. That is, data for each dose level was generated by three separated groups of three mice each. A minimum of three dose levels (10, 30, and 100 mg/kg) are tested for each drug. Treatments are administered intraperitoneally one hour prior to testing. All dosages are calculated as parent compound and given in volumes of 10 ml/kg. […] Control animals are injected with Methocel. […] The actophotometer consists of a cylindrical chamber whose center is occupied by another cylinder which contains the illumination for six photocells located on the perimeter of the chamber. Six light-beam interruptions equal one count. […] Data: The data obtained from the screen test are expressed as percent of mice falling off the screen. Data derived from locomotor activity of drug treated mice are compared to the activity of vehicle treated animals and are expressed as percent inhibition of spontaneous locomotion. All percentages reported for inhibition of locomotion (LI) are based upon data accumulated for one hour. […] An overall dose rating is obtained by the following criteria: LAD refers to the lowest dose at which an A rating is achieved. […] The compounds are identified in the Examples.

adenosine A2 receptor = molecular target: T1, adenosine A2 receptor (Rattus norvegicus, UniProt P30543); assay: Adenosine Receptor Binding - A2 Receptor Affinity (RBA2); conditions: [3H]NECA, rat striatal membranes; read-out: RBA-2
T1 construct: 5 mg original tissue weight of rat weight of rat striatal membranes; tissue Pel-Freez (Rogers, Arkansas); host or cells: rat striatum, membrane preparation
Procedure: Adenosine Receptor Binding - A2 Receptor Affinity (RBA2)
Brains from 200-500 g mixed sex Sprague-Dawley rats were purchased from Pel-Freez (Rogers, Arkansas). […] Brains were thawed and then kept on ice while the striata were dissected out. […] When needed, tissue was thawed at room temperature, disrupted in a Polytron, and kept on ice until used.
All incubations were for 60 minutes at 25°C in 12x75 mm glass tubes containing 1 ml Tris with 5 mg original tissue weight of rat weight of rat striatal membranes, 4 nM [^3H]-N-ethyl adenosine-5'-carboxamide ([^3H]NECA), 50 nM N^6-cyclopentyladenosine (to eliminate A1 receptor binding), 10 mM MgCl2, 0.1 units/ml of adenosine deaminase and 1% dimethylsulfoxide. N^6-Cyclopentyladenosine was dissolved at 10 mM in 0.02 N HCI and diluted in Tris. […] Test compounds were dissolved at 10 mM in dimethylsulfoxide on the same day as the experiment, and diluted in dimethylsulfoxide to 100x the final incubation concentration. […] [^3H]NECA was diluted to 40 nM in Tris. The membrane suspension (5 mg/0.79 ml) contained sufficient MgC12 and adenosine deaminase to give 10 mM and 0.1 units/ml, respectively, final concentration in the incubation. For test compounds with lC50 values less than 1 µM, the order of additions was test compound (10 µl), N^6-cyclopentyladenosine (100 µl), [^3H]NECA (100 µl), and membranes (0.79 ml). […] After all additions, the rack of tubes was vortexed, and the tubes were then incubated for 60 min at 25°C in a shaking water bath. The rack of tubes was vortexed an additional time halfway through the incubation.
incubations were terminated by filtration through 2.4 cm GF/B filters under reduced pressure. Each tube was filtered as follows: the contents of the tube were poured onto the filter, 4 ml of ice-cold Tris were added to the tube and the contents poured onto the filter, and the filter was washed twice with 4 ml of ice-cold Tris. The filtration was complete in about twelve seconds.
Nonspecific binding was defined as binding in the presence of 100 µM N^6-cyclopentyladenosine, and specific binding was defined as total binding minus nonspecific binding. The IC50 was calculated by weighed nonlinear least squares curve-fitting to the mass-action equation. [formula] • where Y is cpm bound • T is cpm total binding without drug • S is cpm specific binding without drug • D is the concentration of drug • and K is the IC50 of the drug Weighting factors were calculated under the assumption that the standard deviation was proportional to the predicted value of Y. Nonspecific binding was treated as a very large (infinite) concentration of drug in the computer analysis.

adenosine A1 receptor = molecular target: T2, adenosine A1 receptor (Rattus norvegicus, UniProt P25099); assay: Adenosine Receptor Binding - A1 Receptor Affinity (RBA1); conditions: [3H]-CHA, rat whole brain membranes; read-out: RBA-1
T2 construct: Whole brain minus cerebellum and brainstem from male Long Evans rats (150-200 g) was homogenized; from tissue; host or cells: rat whole brain minus cerebellum and brainstem, membrane homogenate
T2 sequence (P25099 1-326): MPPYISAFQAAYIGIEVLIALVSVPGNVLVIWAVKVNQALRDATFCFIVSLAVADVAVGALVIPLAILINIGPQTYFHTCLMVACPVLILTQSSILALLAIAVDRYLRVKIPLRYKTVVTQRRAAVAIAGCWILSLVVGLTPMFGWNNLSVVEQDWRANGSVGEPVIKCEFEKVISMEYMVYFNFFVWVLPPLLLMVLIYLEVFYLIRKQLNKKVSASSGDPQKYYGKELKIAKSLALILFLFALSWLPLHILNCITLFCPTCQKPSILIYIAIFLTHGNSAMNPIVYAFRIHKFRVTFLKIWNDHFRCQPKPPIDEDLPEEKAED
Procedure: Adenosine Receptor Binding - A1 Receptor Affinity (RBA1)
Whole brain minus cerebellum and brainstem from male Long Evans rats (150-200 g) was homogenized in 30 volumes of ice-cold 0.05 M Tris-HCI buffer pH 7.7 using a Brinkman Polytron PT-10 (setting number 6 for 20 seconds) and centrifuged for ten minutes at 20,000 x g (Sorvall RC-2), 4°C. The supernatant was discarded, and the pellet was resuspended and centrifuged as before. The pellet was resuspended in 20 ml Tris-HCI buffer containing two International Units/ml of adenosine deaminase (Sigma type III from calf intestinal mucosa), incubated at 37°C for 30 minutes, then subsequently at 0°C for ten minutes. The homogenate was again centrifuged, and the final pellet was resuspended in ice-cold 0.05 M Tris-HCI buffer pH 7.7 to a concentration of 20 mg/ml original wet tissue weight and used immediately.
Tissue homogenate (10 mg/ml) was incubated in 0.05 M Tris-HCI buffer pH 7.7 containing 1.0 nM [^3H]-N^6-cyclohexyladenosine (^3H]-CHA) with or without test agents in triplicate for one hour at 25°C. Incubation volume was 2 ml. Unbound [^3H]-CHA was separated by rapid filtration under reduced pressure through Whatman glass fiber (GF/B) filters. The filters were rinsed three times with 5 ml of ice cold 0.05 M Tris-HCI buffer pH 7.7. The radio-labeled ligand retained on the filter was measured by liquid scintillation spectrophotometry after shaking the filters for one hour or longer on a mechanical shaker in 10 ml of Beckman Ready Solv HP scintillation cocktail.
Nonspecific binding was defined as the binding which occurred in the presence of 1 mM thophylline. […] The Scatchard plot was calculated by linear regression of the line obtained by plotting the amount of radioligand bound (pmoles/gram of tissue) versus [formula] Since the amount of radioligand bound was a small fraction of the total amount added, free radioligand was defined as the concentration (nM) of radioligand added to the incubation mixture. The Hill coefficient was calculated by linear regression of the line obtained by plotting the log of the bound radioligand vs the log of the [formula] The maximal number of binding sites (Bmax) was calculated from the Scatchard plot.

T1 sequence (P30543 whole entry): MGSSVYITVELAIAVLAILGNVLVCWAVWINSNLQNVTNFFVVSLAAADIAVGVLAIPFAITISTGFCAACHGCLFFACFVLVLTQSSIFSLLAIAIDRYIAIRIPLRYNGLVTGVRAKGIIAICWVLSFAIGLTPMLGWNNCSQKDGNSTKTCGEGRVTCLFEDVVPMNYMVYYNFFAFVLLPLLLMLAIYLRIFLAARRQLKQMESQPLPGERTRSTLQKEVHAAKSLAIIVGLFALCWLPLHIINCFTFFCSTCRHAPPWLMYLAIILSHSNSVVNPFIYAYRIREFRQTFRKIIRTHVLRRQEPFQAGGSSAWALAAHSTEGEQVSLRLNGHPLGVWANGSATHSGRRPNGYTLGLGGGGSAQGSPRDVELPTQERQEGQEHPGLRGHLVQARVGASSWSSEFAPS

| Compound | Inhibition of mouse locomotor activity (Swiss-Webster male mice; 1 mg/kg intraperitoneally) | Inhibition of mouse locomotor activity (Swiss-Webster male mice; 3 mg/kg intraperitoneally) | Inhibition of mouse locomotor activity (Swiss-Webster male mice; 10 mg/kg intraperitoneally) | Inhibition of mouse locomotor activity (Swiss-Webster male mice; 30 mg/kg intraperitoneally) | IC50 (adenosine A2 receptor) | IC50 (adenosine A1 receptor) | Inhibition of mouse locomotor activity (Swiss-Webster male mice; 0.1 mg/kg intraperitoneally) | Inhibition of mouse locomotor activity (Swiss-Webster male mice; 0.3 mg/kg intraperitoneally) | Inhibition of mouse locomotor activity (Swiss-Webster male mice; 0.03 mg/kg intraperitoneally) | Inhibition of mouse locomotor activity (Swiss-Webster male mice; 100 mg/kg intraperitoneally) | Inhibition of mouse locomotor activity (Swiss-Webster male mice; 9.0 mg/kg intraperitoneally) |
| --- | --- | --- | --- | --- | --- | --- | --- | --- | --- | --- | --- |
| Cc1cc(C)c2c(c1)C(Nc1ncnc3c1ncn3[C@@H]1O[C@H](CO)[C@@H](O)[C@H]1O)CCC2 (some centres unmarked) [Example 18, N^6-[1-(5,7-dimethyl)-tetralinya]-adenosine] | 44% | 73% | 91% | 96% | 366 nM | 20 nM |  |  |  |  |  |
| OC[C@H]1O[C@@H](n2cnc3c(NCC4=CCc5ccccc54)ncnc32)[C@H](O)[C@@H]1O [Example 22, N^6-[1H-inden-3-yl]methyladenosine] | 76% | 76% | 96% | 97% | 65.5 nM | 57 nM | 30% | 38% |  |  |  |
| CC1CCc2ccccc2C1Nc1ncnc2c1ncn2[C@@H]1O[C@H](CO)[C@@H](O)[C@H]1O (some centres unmarked) [Example 4, N^6-[1-(2-Methyl)-tetralinyl]-adenosine] |  |  | 97% | 99% | 524 nM | 19 nM | 1% | 70% | 3% | 99% |  |
| OC[C@H]1O[C@@H](n2cnc3c(NC4CCCc5ccccc54)ncnc32)C(O)[C@@H]1O (stereo in doubt) [Example 1, (R,S)-N^6-[1-Tetralinyl]-adenosine] | 86% | 93% | 98% | 97% | 476 nM | 59 nM |  |  |  | 99% |  |
| COc1cccc2c1CCC[C@@H]2Nc1ncnc2c1ncn2[C@@H]1O[C@H](CO)[C@@H](O)[C@H]1O [Example 10, (S)-N^6-[5-methoxy-1-aminotetralin]-adenosine] | 65% | 88% | 95% | 97% | 217 nM | 19 nM |  | −19% |  |  |  |
| CC(=O)OC[C@H]1O[C@@H](n2cnc3c(NC4CCCc5ccccc54)ncnc32)[C@H](O)[C@@H]1O (some centres unmarked) [Example 15, N^6-(1-tetralinyl)-5'-acetyl-adenosine] | 87% | 96% | 98% | 99% | 4440 nM | 500 nM |  | 46% |  |  |  |
| OC[C@H]1O[C@@H](n2cnc3c(NCC4=CCCc5ccccc54)ncnc32)[C@H](O)[C@@H]1O [Example 24, N^6-[3,4-dihydro-1-naphthalenyl]methyladenosine] | 34% | 67% | 94% | 95% | 76.5 nM | 159 nM |  | 9% |  |  |  |
| COc1ccc2c(c1)C(Nc1ncnc3c1ncn3[C@@H]1O[C@H](CO)[C@@H](O)[C@H]1O)CCC2 (single isomer, unassigned) [Example 8] | 83% | 88% | 93% | 94% | 407 nM | 21 nM |  | 25% |  |  |  |
| OC[C@H]1O[C@@H](n2cnc3c(NC4CCCc5ccccc54)ncnc32)[C@H](O)[C@@H]1O (stereo partly drawn) [Example 2, (R)-N^6-[1-Tetralinyl]-adenosine] | 79% | 95% |  | 99% | 243 nM | 44 nM | 25% | 45% |  |  | 97% |
| CC(=O)Oc1ccccc1C(=O)OC[C@H]1O[C@@H](n2cnc3c(NC4CCCc5ccccc54)ncnc32)[C@H](O)[C@@H]1O (some centres unmarked) [Example 14, N^6-(1-tetralinyl)-5'-O-(O-acetylsalicoyl)adenosine] | 54% | 69% | 94% | 94% | 57100 nM | 8220 nM |  |  |  |  |  |

— patent publication EP0179667B1, “N6-substituted adenosines” (priority 1984, dated 1986)
